# Several values for one entry are separate records, joined by “and”; a condition that tells them apart may be missing. Equal values may be shown once. Read-outs that look alike come from different tables or passages of the source.
# Key:
# [1] = in vitro; type: cell-based, murine; conditions: mouse
# Text: For selected compounds, 6a–6f, we performed a determination of the cytotoxicity in a wider variety of cancer and non-cancerous cell lines (see Table S2, Supplementary Materials) in order to learn the characteristic features of selectivity or the similarity of biological properties.
# The HT-1080 (human connective tissue fibrosarcoma, ATCC® CCL-121™), MH-22A (mouse hepatocarcinoma, ECACC Cat. No. 96121721), A-549 (human lung carcinoma, ATCC® CCL-185™), NIH3T3 (Swiss Albino mouse embryo fibroblast, ECACC Cat. No. 93061524), Hek293 (human embryonic kidney, ATCC® CRL-1573™), BHK-21 (Syrian hamster kidney, ATCC® CCL-10™), A-431 (human epidermoid carcinoma, ATCC® CRL-1555™), Saos-2 (human osteosarcoma, ATCC® HTB-85™), HeLa (human epitheloid cervix carcinoma, ATCC® CCL-2™), U937 (human myeloid leukaemia, ATCC® CRL-1593.2™), C6 (rat glioma, ATCC® CCL-107™), and B16-F10 (murine melanoma, ATCC® CRL-6475™) cell lines were obtained from the American Type Culture Collection (ATCC) and European Collection of Authenticated Cell Cultures (ECACC).
# HT-1080, MH-22A, A-549, NIH3T3, BHK-21, A-431, HeLa, and B16-F10 cells were cultured in Dulbecco’s Modified Eagle’s Medium (DMEM) with 2 mM glutamine and 10% foetal bovine serum (FBS). Hek293 cells were cultured in Eagle’s Minimum Essential Medium with 10% foetal bovine serum. U937 cells were cultured in RPMI-1640 Medium with 2 mM glutamine and 10% foetal bovine serum. C6 cells were cultured in Ham’s F12 Medium with 2 mM glutamine and 10% foetal bovine serum. Saos-2 cells were cultured in McCoy’s 5a Medium with 2 mM glutamine and 10% foetal bovine serum. The cells were incubated at 37 °C with 5% CO2, 95% air, and complete humidity. Once ~90% confluence was reached, they were detached using 0.05% trypsin/EDTA and counted. The cells were plated at optimally determined densities for the logarithmic phase of growth. These cells were then suspended at a concentration of 4000 cells/well for HT-1080, MH-22A, A-549, NIH3T3, BHK-21, A-431, HeLa, B16-F10, Hek293, and Saos-2 cells and a concentration of 9000 cells/well for U937, C6, Hek293, and GM08402 cells and added onto a 96-well plate. For background absorption, some wells remained cell free, i.e., as a blank control. Cells were incubated for 72 h at 37 °C and 5% CO2 where they were exposed to a media containing serial dilutions of the investigated compounds (n = 3). Cell viability was measured using the 3-(4,5-dimethylthiazol-2-yl)-2,5-diphenyl-tetrazolium bromide (MTT) assay. In brief, after incubating with compounds, the culture medium was removed and fresh medium with 0.2 mg/mL MTT was added to each well of the plate. After incubation (3 h, 37 °C, 5% CO2), the medium with MTT solution was removed and replaced with 200 µL DMSO and 25 µL Sorenson’s glycine buffer (glycine 0.1 M, NaCl 0.1 M, pH: 10.5 with 0.1 M NaOH). The plate was shaken for 15 min at room temperature and the optical density (OD) of the wells was determined using a multichannel spectrophotometer (Thermo Scientific Multiskan EX) at 540 nm. The quantity of the control cells was taken in calculations as 100%. The IC50 value was calculated using the program Graph Pad Prism® 3.0. […]
# [2] = Excitation/emission fluorescence spectra; type: physicochemical; conditions: for Stokes' shift, nm: DMSO; for fluor. max. λ, nm / excitation λ, nm: DMSO solution; for excitation λ, nm: excitation giving maximum fluorescence intensity
# Method: The resonance structures of compounds 6d,e (Figure 2a) show a possibly intramolecular charge transfer between the julolidine moiety and the pyridinium unit. The normalised fluorescence spectra of the tested compounds 6a–e and 7a,b in DMSO solution (Figure 2c) and the fluorescence spectra of compound 6e in various media (Figure 2d) were measured using a spectrophotometer multiplate reader (Infinite M1000). The UV/Vis spectra in DMSO solution of compounds 6a–g (Figure 2b) were reordered with a UV/Vis spectrophotometer, and the fluorescence spectra of compound 6e in EtOH–glycerol mixtures (Figure 2e) were collected with a Spectrofluorometer FS5.
# According to the calculations, the excitation occurs at 542 nm and the emission at 765 nm. The obtained theoretical calculation data are in good agreement with the experimental data, where the excitation occurs at 530 nm and the emission at 760 nm (Table 3).
# We have also tested whether the characteristics of compound 6e depended upon the viscosity of its surrounding environment. […] It was underlined that water media reduced the fluorescence quantum yields and the lifetime of organic fluorophores by up to threefold. […] In pure glycerol, the maximum value of fluorescence was detected at 645 nm. As the amount of glycerol decreased, the fluorescence intensity of the sample decreased as well. The second fluorescence maximum at 720 nm was observed when the amount of ethanol had reached approximately 50% in the composition.
# A concentration of 10 mM stock solution of compounds 6 or 7 was prepared by dissolving the compounds in DMSO. Working solutions were prepared by diluting the 10 mM stock solution of compounds with different solvents to reach the final concentration for the samples: DMSO (compound concentration 0.1 mM); for compound 6e: in glycerol (concentration 0.01 mM), in water (concentration 0.5 mM), in 0.1 M HCl (concentration 0.5 mM), in 0.1 M NaOH (concentration 0.5 mM), or in 1% DMSO/99% water (concentration […]). The fluorescence spectra were measured using a spectrophotometer multiplate reader (Tecan Infinite M1000; Tecan Austria GmbH, Salzburg, Austria). For excitation/emission fluorescence spectra measurements, the following measurement parameters were applied: excitation wavelength from 260 nm to 690 nm with a 10 nm sampling interval and emission wavelength from 300 nm to 840 nm with a 10 nm sampling interval. The fluorescence spectra of compound 6e (concentration 5 mM) in EtOH–glycerol mixtures were measured with an Edinburgh Instruments FS5 Spectrofluorometer (Edinburgh Instruments Ltd., Kirkton Campus, UK). The data were analysed using Microsoft Excel software version 2308.
# [3] = cancer cell line, MTT, 72 h, read-out: Cytotoxicity IC50 B16-F10
Compound,IC50 at 72 h [1],"Stokes' shift, nm [2]","fluor. max. λ, nm [2]","excitation λ, nm [2]","IC50 at 72 h [1, 3]","second fluorescence maximum ([2]; EtOH-glycerol mixture, ethanol approximately 50%)",fluorescence emission maximum wavelength ([2]; pure glycerol)
"CCCCCCCCCCCCCCCC[n+]1ccc(C=CC=Cc2ccc(OC)cc2)cc1.[Br-] [Compound 6c, 1-hexadecyl-4-(4-(4-methoxyphenyl)buta-1,3-dien-1-yl)pyridin-1-ium bromide]",0.49 µg/mL,352 nm,760 nm and ~ 760 nm,530 nm,,,
"CCCCCCCCCCCC[n+]1ccc(C=Cc2cc3c4c(c2)CCCN4CCC3)cc1.[Br-] [Compound 6d, 1-dodecyl-4-(2-(2,3,6,7-tetrahydro-1H,5H-pyrido[3,2,1-ij]quinolin-9-yl)vinyl)pyridin-1-ium bromide]",,,660 nm,530 nm,0.113 µg/mL,,
C(=C\c1cc2c3c(c1)CCCN3CCC2)/c1cc[n+](CCC[n+]2ccc(/C=C/c3cc4c5c(c3)CCCN5CCC4)cc2)cc1 [Compound 7a],,,660 nm,530 nm,,,
"C(C=Cc1cc2c3c(c1)CCCN3CCC2)=Cc1cc[n+](CCC[n+]2ccc(C=CC=Cc3cc4c5c(c3)CCCN5CCC4)cc2)cc1.[Br-].[Br-] [Compound 7b, 1,1′-(propane-1,3-diyl)bis(4-(4-(2,3,6,7-tetrahydro-1H,5H-pyrido[3,2,1-ij]quinolin-9-yl)buta-1,3-dien-1-yl)pyridin-1-ium) dibromide]",,,770 nm and ~ 760 nm,530 nm,,,
"CCCCCCCCCCCC[n+]1ccc(C=Cc2cc(OC)c(OC)c(OC)c2)cc1.[Br-] [Compound 6a, 4-(3,4,5-trimethoxystyryl)-N-dodecylpyridinium bromide]",,,580 nm,380 nm,0.8 µg/mL,,
CCCCCCCCCCCCCCCC[n+]1ccc(C=Cc2cc(OC)c(OC)c(OC)c2)cc1.[Br-] [Compound 6b],,,580 nm,380 nm,,,
"CCCCCCCCCCCCCCCC[n+]1ccc(C=CC=Cc2cc3c4c(c2)CCCN4CCC3)cc1.[Br-] [Compound 6e, 1-hexadecyl-4-(4-(2,3,6,7-tetrahydro-1H,5H-pyrido[3,2,1-ij]quinolin-9-yl)buta-1,3-dien-1-yl)pyridin-1-ium bromide]",,240 nm,760 nm and ~ 760 nm,530 nm,2.9 µg/mL,720 nm,645 nm

# Source: paper PMC10535741, “Styrylpyridinium Derivatives for Fluorescent Cell Imaging” (Pharmaceuticals, 2023)
